In patent publication US20090197853A1, “METHODS AND COMPOSITIONS OF TREATING CANCER” (priority 2005, published 2009):
Entries after “also recorded” stand apart in the source; their conditions may differ. Starred links: 1 amine or outer side, 2 acyl side, 3 side chain; linkers in the order of their positions; H or OH if unused. Positions of bridges follow the written chain, without caps; N, C: chain ends. Non-standard residues stand in square brackets, D forms with d. Residues, ends and D or L forms follow the SMILES beside them. Chains are numbered I, II in the order given. Actinocin(9to1) = Cc1c2oc3c(C)ccc(C(=O)[*:1])c3nc-2c(C(=O)[*:2])c(N)c1=O; NMeV = CN[C@H](C(=O)O)C(C)C; Sar = CNCC(=O)O

Experiments:
Ramos cells [1] = test: Cell cycle analysis (BrdU / 7-AAD), Ramos; format: cell-based; conditions: for Cell cycle distribution / progression: Ramos; for BrdU incorporation into DNA: comparison treatments
Method: Methods: […] Thirty minutes prior to harvest, cultures were treated with 5-bromo-2′-deoxyuridine (BrdU) at a final concentration of 10 μM. Cells were isolated by centrifugation, washing once with 0.5% BSA in PBS, and the resulting cell pellets fixed using 0.5 mL Cytofix/Cytoperm reagent (BD Biosciences). […] Cells were stained using a fluorescein-conjugated anti-BrdU antibody (clone PRB1, E-Bioscience, San Diego, Calif.) and 7-AAD. Cell cycle occupancy was analyzed by flow cytometry using fluorescein signal as a measure of DNA synthesis and 7-AAD signal as a measure of DNA content. […] L. Shepherd & Assoc., San Fernando, Calif.).

Thioredoxin reductase = test: Lipoate reduction (thioredoxin reductase activity) in intact A549 cells; format: cell-based, human; conditions: A549; actinomycin D 2.5 μg/mL or cycloheximide 10 μg/mL 1 hour prior, BSO 100 μM 24 hours prior
Method: Methods: Lipoate Reduction. Thioredoxin reductase activity was assessed by measuring the rate of lipoate reduction. In brief, A549 or PC3 cells (10,000 cells/well) were plated on 96-well plates and allowed to adhere overnight and grow two additional days until confluent. Cells were treated with MGd, zinc, or 5% mannitol for 2-4 hours, as indicated. Medium was removed, cells were washed with Hanks Balanced Salt Solution (HBSS), and a solution of 5 mM lipoic acid and 1 mM 5,5′-dithiobis(2-nitrobenzoic acid) in HBSS (100 μL/well) was added. Plates were incubated at ambient temperature in the dark. At chosen time intervals, plate absorbance was measured at 405-650 nm. Plate absorbances were normalized to wells containing neither exogenous zinc nor texaphyrin complex to allow plate-to-plate comparison. In some experiments, L-buthionine-[S,R]-sulfoximine (BSO, 100 μM) was added 24 hours prior to MGd or zinc treatment, to inhibit any contribution to lipoate reduction made by glutathione-dependent pathways (28). Actinomycin D (2.5 μg/mL) or cycloheximide (10 μg/mL), where present, was added 1 hour prior to texaphyrin or zinc treatment. Viability was checked on parallel plates using the tetrazolium dye 3-(4,5-dimethylthiazol-2-yl)-5-(3-carboxymethoxyphenyl)-2-(4-sulfophenyl)-2H-tetrazolium (MTS) following the manufacturers protocol (Promega Corp.).

[2] = tested on: metallothionein gene family members and ZnT1; test: Northern blot analysis, A549 cultures; format: cell-based, human; conditions: for Metallothionein transcript levels: A549, 24 hours, 50 μM MGd, Zn(OAc)2 100 μM, CdCl2 50 μM, FIG. 2B
Method: Methods: Northern Blot Analysis—Plateau phase cultures of A549 cells were prepared as described above, except that T-25 flasks were used, and the number of cells initially plated scaled accordingly. Cultures were treated with 50 μM MGd, 5 μM Gd(OAc)3 or 5% mannitol for 4 hours, whereupon cultures were washed twice with PBS and RNA harvested as above. Alternatively, 7-day plateau phase A549 or PC3 cultures were treated with 50 μM MGd, 50-100 μM Zn(OAc)2, 50 μM CdCl2 or 5% mannitol for 24 hours (A549) or 4 hours (PC3) prior to washing and RNA analysis. Exponential phase Ramos cultures were treated for 6 hours. Northern blots were conducted and analyzed. Radio labeled metallothionein probe, designed to bind to a 113-bp region of 3′-UTR sequences from multiple metallothionein gene family members, was generated using 5′-[…]-3′ (forward) and 5′-[…]-3′ (reverse) PCR primers and the NEBlot kit (New England Biolabs, Inc.). Radio labeled ZnT1 probe was generated in a similar fashion using 5′-[…]-3′ (forward) and 5′-[…]-3′ (reverse) primers.

A549 cells = test: Cell viability by propidium iodide exclusion, A549; conditions: A549, 24 hours; Zn(OAc)2 100 μM, CdCl2 50 μM, MGd 50 μM
Method: Methods: Cellular Viability. Cell viability was determined by using propidium iodide (PI) flow cytometric analysis. Cells from plateau phase cultures grown in T-25 flasks were harvested as described above, except that cells present in the growth medium and wash solution were isolated by centrifugation and included in the analysis. Cells were resuspended in 1 mL PBS, an aliquot of 3×10^5 cells transferred to a 4 mL tube, and the cells isolated by centrifugation. Cell pellets were resuspended in PBS supplemented with 2 μg/mL propidium iodide (Sigma), incubated for 5 minutes at ambient temperature, and subjected to flow cytometric analysis. Flow cytometry was performed on a FACSCalibur instrument and data were analyzed using the CellQuest Pro software package (BD Biosciences).

HIF-1α = HIF-1α sandwich ELISA, Ramos; format: cell-based; conditions: four hours
Method: Methods: Total HIF-1α protein was detected by sandwich ELISA using the DuoSet IC™ HIF-1α ELISA kit obtained from R&D Systems (Minneapolis, Minn.). All incubations were carried out at ambient temperature. Briefly, 96-well plates were coated with HIF-1α capture antibody overnight prior to blocking with 5% BSA in wash buffer. Protein lysates (50 μg protein per well prepared according to the manufacturer's instructions) were added for 2 hours, whereupon plates were washed and a biotinylated detection antibody specific for HIF-1α was added. A streptavidin-horseradish peroxidase format was used for detection. The optical density at 450 minus […] was measured using a microplate reader (SpectraMax Plus, Molecular Devices, Palo Alto, Calif.). HIF-1α concentrations were calculated by linear regression using a standard curve prepared from HIF-1α standard supplied with the ELISA kit.

Ramos cells [3] = test: Intracellular free zinc (FluoZin-3 fluorescence), Ramos; format: cell-based; conditions: hydrogen peroxide treatment
Method: Methods: Intracellular Free Zinc. The concentration of intracellular free zinc was assessed using the ion-specific fluorescent probe, FluoZin-3-AM™ (FluoZin-3, Molecular Probes, Inc.). […] Following treatment, cells were isolated by centrifugation. Cell pellets were washed and re-suspended in a solution of 0.5% BSA in PBS.

Ramos cells [4] = test: Reactive oxygen species (DCFA to DCF), Ramos; format: cell-based; conditions: single agents
Method: Methods: Reactive oxygen species were measured in live cells as intracellular peroxides by monitoring the oxidation of 2′,7′-dichlorofluorescin-diacetate (DCFA) to 2′,7′-dichlorofluorescein (DCF) (Molecular Probes). Cells (1×10^6 per mL) were incubated in a solution of 1 μg per mL DCFA in 0.5% BSA in HBSS for 15 minutes at 37° C. Two mL additional 0.5% BSA in HBSS was added, cells were isolated by centrifugation, and the pellet re-suspended in a solution of 50 μg/mL 7-aminoactinomycin D (7-AAD) in 0.5% BSA in HBSS. Cell suspensions were incubated at ambient temperature for 2 to 3 minutes, and stored on ice until analysis. The fluorescent intensity in live (i.e., 7-AAD impermeable) cells was analyzed by flow cytometry.

## O=c1[nH]c(=O)n([C@H]2C[C@H](O)[C@@H](CO)O2)cc1F [5-fluoro-2′-deoxyuridine]
Ramos cells [1]
  Cell cycle distribution / progression: accumulation of cells in G1/S
  BrdU incorporation into DNA: permitted BrdU incorporation into DNA

## CCCCS(=N)(=O)CCC(N)C(=O)O [BSO, L-buthionine-[S,R]-sulfoximine, reference compound]
Thioredoxin reductase
  Effect of pre-treatment on the inhibition of lipoate reduction by MGd and zinc: increased the degree of inhibition

## [Cl][Cd][Cl] [CdCl2, reference compound]
[2]
  Metallothionein transcript levels: significant increase
[2]; listed as cadmium
  Metallothionein transcript levels: raised; also recorded: high levels of metallothionein transcription
A549 cells
  Cellular viability (propidium iodide exclusion): ca. 53%

## CC(=O)[O-].CC(=O)[O-].CC(=O)[O-].[Gd+3] [Gd(OAc)3, gadolinium acetate, reference compound]
[2]; A549 plateau phase, 4 hours, 50 μM MGd or 5 μM Gd(OAc)3
  Induction of metallothionein gene family members and ZnT1 (Northern blot): induced only in cultures treated with MGd

## Cc1c2oc3c(C)ccc(C(=O)N[C@@H]4C(=O)N[C@H](C(C)C)C(=O)N5CCC[C@H]5C(=O)N(C)CC(=O)N(C)[C@@H](C(C)C)C(=O)O[C@@H]4C)c3nc-2c(C(=O)N[C@@H]2C(=O)N[C@H](C(C)C)C(=O)N3CCC[C@H]3C(=O)N(C)CC(=O)N(C)[C@@H](C(C)C)C(=O)O[C@@H]2C)c(N)c1=O [actinomycin D, reference compound] (I: T[dV]P[Sar][NMeV] / II: T[dV]P[Sar][NMeV]; ester I:1-I:C, II:1-II:C; linker I:N-II:N via Actinocin(9to1))
Thioredoxin reductase
  Effect of pre-treatment on the inhibition of lipoate reduction by MGd and zinc: restored the inhibitory effect

## CC(=O)[O-].CC(=O)[O-].[Co+2] [cobalt acetate]
HIF-1α
  Increase in total cellular HIF-1α levels: increased

## C[C@@H]1C[C@@H]([C@H](O)CC2CC(=O)NC(=O)C2)C(=O)[C@@H](C)C1 [cycloheximide, reference compound]
Thioredoxin reductase
  Effect of pre-treatment on the inhibition of lipoate reduction by MGd and zinc: restored the inhibitory effect

## OO [hydrogen peroxide, reference compound]
Ramos cells [3]
  FluoZin-3 fluorescence: increased
Ramos cells [4]
  DCF signal: increased

## NC(=O)NO [hydroxyurea]
Ramos cells [1]
  Cell cycle distribution / progression: allowed passage through G2M
  BrdU incorporation into DNA: inhibited BrdU incorporation
